This is an account of results in patent US20070293576A1, “Pharmaceutical Methods, Dosing Regimes And Dosage Forms For The Treatment Of Alzheimer's Disease” (Myriad Genetics, Incorporated, priority 2003, published 2007).

The test system of series [1] is patients with Alzheimer's disease. To be noted: clinical trials; rofecoxib at 25 mg daily; cited from earlier work.
Series [2] concerns patients having mild cognitive impairment. To be noted: cited from earlier work.
Series [3] has as its target cytochrome P450 (CYP) 2C9 (Homo sapiens, UniProt P11712). To be noted: cited from earlier work.
Series [4] relates to Aβ42. To be noted: CHO cells; cited from earlier work.
The subject of a further series is COX. To be noted: cited from earlier work.
Series [5] relates to Aβ42. To be noted: transgenic mouse model; cited from earlier work.
The nature of series [6]: Phase I pharmacokinetic study of R-flurbiprofen in plasma, one compartment model. In kind it is in vivo, human. To be noted: oral capsules, plasma Study Day 21, mean value one compartment model. Here is the method: The study is conducted as a double-blind, placebo-controlled, sequential, ascending dose level, multiple dose study, including men and women. Sixteen subjects are assigned to each of three sequential cohorts: 200 mg BID, 400 mg BID, and 800 mg BID of R-flurbiprofen, each with matched placebo BID. Each cohort contains a 3:1 ratio of assignment to active drug (n=12) versus placebo (n=4), resulting in 4 treatment groups of 12 subjects each after combining the 3 placebo groups. The study is balanced by site and stratified by gender. Subjects receive either R-flurbiprofen at the specified dose or a matched placebo orally for 21 days. Blood and urine samples are collected for laboratory safety data at Study Day 1, Study Day 21, and End of Study (30-Day Follow Up) visit. Blood and CSF are collected for pharmacokinetic and biomarker measures at Study Day 1 and after 21 days of treatment with the study drug.
Subjects are instructed to take 1 capsule from Bottle A and 1 capsule from Bottle B 2 times per day (BID) for 20 days; Bottles A and B may contain R-flurbiprofen or placebo. The intraday dosing interval is approximately 12 hours, and the study drug is taken at approximately the same time each day. After 20 days (i.e., on Study Day 21), study participants undergo a pharmacokinetic study, as described below. Daily doses for the 4 groups of the study are: • 400 mg R-flurbiprofen (given as one 200 mg capsule and 1 placebo capsule BID) • 800 mg R-flurbiprofen (given as one 400 mg capsule and 1 placebo capsule BID) • 1600 mg R-flurbiprofen (given as two 400 mg capsules BID)
Blood and urine samples are collected on Study Day 21 from fasted participants for clinical chemistries, hematology, coagulation parameters, and urinalysis. Blood samples are collected on Study Day 21 at 0.5, 1, 2, 4, and 6 hours, and, if possible, 8 and 24 hours, after administration of the final dose of study drug. The total amount of blood collected for the pharmacokinetic analyses is approximately 64 mL. All blood samples for PK/PD analysis are analyzed for both R-flurbiprofen and S-flurbiprofen, and the extent of bioinversion of R-flurbiprofen to S-flurbiprofen is assessed.
The plasma concentration time profile of R-flurbiprofen is analyzed using nonlinear modeling, and preliminary estimates of PK parameters are obtained. Estimates include individual and mean half-life, clearance, AUC, Cmax, Tmax, and average steady-state concentration. Cerebrospinal fluid levels of R-flurbiprofen are summarized. If plasma concentrations over time are similar to those found in other patient populations, Bayesian estimation is used to estimate population PK parameters, allowing the PK parameters observed in this population to be evaluated in the context of data observed in additional clinical studies. Estimates include the mean and individual PK parameters as well as the magnitude of intersubject variability.
A clinical trial was conducted as described in Example 5, above. Pharmacokinetic parameters were determined using WinNonlin® Version 4.0 (Pharsight, Mountain View, Calif.). A one compartment model with first order elimination and uniform weighting was used with WinNonlin estimated parameter boundaries for absorption rate (K01), elimination rate (K10) and volume (V_F). Individual and mean value parameters derived include K10 half-life, Cmax (maximum plasma concentration), Tmax (time of maximum plasma concentration), AUC (area under the plasma time and concentration curve), and Cl_F (clearance). The model calculates the concentration at time T as follows: C(T)=D*K01/V/(K01−K10)*(EXP(−K10*T)−EXP(−K01*T)) (1), where C(T) is concentration at time T; D=dose; V is volume; V_F is volume of distribution over systemic availability; K01 is the absorption rate constant; K10 is elimination rate constant; CL_F is clearance over systemic availability; and T is time. […]

Where [7] appears, read: 200 mg BID group, modeled as single 200 mg dose.
The mark [8] stands for this setting: 400 mg BID group, modeled as single 400 mg dose.
Where [9] appears, read: 800 mg BID group, modeled as single 800 mg dose.

Read-outs that look alike come from different tables or passages of the source.

cytochrome P450 (CYP) 2C9, sequence (P11712 whole entry): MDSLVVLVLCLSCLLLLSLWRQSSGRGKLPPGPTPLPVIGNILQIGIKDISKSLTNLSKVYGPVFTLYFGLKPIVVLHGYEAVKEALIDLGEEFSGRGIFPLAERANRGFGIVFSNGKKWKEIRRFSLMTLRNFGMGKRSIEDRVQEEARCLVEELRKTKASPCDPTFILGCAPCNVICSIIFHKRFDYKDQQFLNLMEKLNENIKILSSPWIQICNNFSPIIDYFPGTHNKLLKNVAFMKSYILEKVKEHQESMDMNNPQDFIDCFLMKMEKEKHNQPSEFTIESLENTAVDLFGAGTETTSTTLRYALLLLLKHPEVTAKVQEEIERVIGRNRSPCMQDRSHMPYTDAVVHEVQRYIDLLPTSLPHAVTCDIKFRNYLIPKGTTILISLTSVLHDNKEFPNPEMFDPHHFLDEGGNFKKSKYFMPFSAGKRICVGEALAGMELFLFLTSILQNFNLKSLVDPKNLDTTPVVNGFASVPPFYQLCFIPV

On to `COc1ccc2cc([C@H](C)C(=O)O)ccc2c1` [Naproxen], for which the “efficacy for treating AD” value in series [1] was “failed to show efficacy”.

In the case of `CS(=O)(=O)c1ccc(C2=C(c3ccccc3)C(=O)OC2)cc1` [rofecoxib], in series [2] (large prevention clinical trial), the “prevention of the development of Alzheimer's disease” value is recorded as “failed to prevent the development of Alzheimer's disease”. Besides, the “patients who developed AD” value in series [2] (large prevention trial, 4.5% for placebo) is on record as 6.4%. Moreover, the “efficacy for treating AD” value in series [1] is reported as “failed to show efficacy”.

For `CC(C(=O)O)c1ccc(-c2ccccc2)c(F)c1` (racemic) [flurbiprofen, (R,S)-(2-fluoro-biphenylyl)propionic acid, reference compound], the “inhibition of the metabolism of drugs that are substrates of CYP2C9” value in series [3] is “inhibit the metabolism”.

For `C[C@@H](C(=O)O)c1ccc(-c2ccccc2)c(F)c1` [R-flurbiprofen], in the series with Aβ42 [4], the “effect on Aβ42” value is reported as “lower Aβ42”. For the same compound, the “inhibition of COX activity” value in the series with COX is given as “negligibly inhibits”. Further, the “effect on Aβ42” value in the series on Aβ42 [5] was “lower Aβ42”. In series [6] (setting [7]), the AUC (commonly the area under the concentration-time curve, a measure of exposure) turned out to be 246 µg·h/mL; the CL_F came to 812 mL/h; the K10_HL is 6.56 h; the time of peak concentration (Tmax) (as a rule, the time from dosing to the highest level) was 2.28 h. Besides, in series [6] (setting [8]), the area under the curve (AUC) was 577 µg·h/mL, the CL_F was 693 mL/h, the K10_HL stood at 8.04 h and the Tmax is 1.58 h. Also, in series [6] (setting [9]), the exposure (AUC) came out at 487 µg·h/mL, the CL_F was found to be 1642 mL/h, the K10_HL turned out to be 5.90 h and the Tmax is 0.86 h. The “inhibition of the metabolism of drugs that are substrates of CYP2C9” value in series [3] was “inhibit the metabolism”.
